This series has as its target T1, ABCB1 (P-glycoprotein/P-gp/MDR1) (Homo sapiens, UniProt P08183).
T1 construct: full-length ABCB1 overexpressed in High Five insect cells; crude membranes
The series is described as follows: vanadate-sensitive ATPase assay, inorganic phosphate release, ABCB1 membranes. Particulars: High Five membranes 100 µg/mL, 12 mM Mg-ATP, 37 °C, 0.01-5 µM. In kind it is biochemical.

SMILES strings stand for the structures.

We go through one compound from article PMC9472360, “Adagrasib, a KRAS G12C inhibitor, reverses the multidrug resistance mediated by ABCB1 in vitro and in vivo” (Cell Communication and Signaling : CCS, 2022).

T1 sequence (P08183 whole entry): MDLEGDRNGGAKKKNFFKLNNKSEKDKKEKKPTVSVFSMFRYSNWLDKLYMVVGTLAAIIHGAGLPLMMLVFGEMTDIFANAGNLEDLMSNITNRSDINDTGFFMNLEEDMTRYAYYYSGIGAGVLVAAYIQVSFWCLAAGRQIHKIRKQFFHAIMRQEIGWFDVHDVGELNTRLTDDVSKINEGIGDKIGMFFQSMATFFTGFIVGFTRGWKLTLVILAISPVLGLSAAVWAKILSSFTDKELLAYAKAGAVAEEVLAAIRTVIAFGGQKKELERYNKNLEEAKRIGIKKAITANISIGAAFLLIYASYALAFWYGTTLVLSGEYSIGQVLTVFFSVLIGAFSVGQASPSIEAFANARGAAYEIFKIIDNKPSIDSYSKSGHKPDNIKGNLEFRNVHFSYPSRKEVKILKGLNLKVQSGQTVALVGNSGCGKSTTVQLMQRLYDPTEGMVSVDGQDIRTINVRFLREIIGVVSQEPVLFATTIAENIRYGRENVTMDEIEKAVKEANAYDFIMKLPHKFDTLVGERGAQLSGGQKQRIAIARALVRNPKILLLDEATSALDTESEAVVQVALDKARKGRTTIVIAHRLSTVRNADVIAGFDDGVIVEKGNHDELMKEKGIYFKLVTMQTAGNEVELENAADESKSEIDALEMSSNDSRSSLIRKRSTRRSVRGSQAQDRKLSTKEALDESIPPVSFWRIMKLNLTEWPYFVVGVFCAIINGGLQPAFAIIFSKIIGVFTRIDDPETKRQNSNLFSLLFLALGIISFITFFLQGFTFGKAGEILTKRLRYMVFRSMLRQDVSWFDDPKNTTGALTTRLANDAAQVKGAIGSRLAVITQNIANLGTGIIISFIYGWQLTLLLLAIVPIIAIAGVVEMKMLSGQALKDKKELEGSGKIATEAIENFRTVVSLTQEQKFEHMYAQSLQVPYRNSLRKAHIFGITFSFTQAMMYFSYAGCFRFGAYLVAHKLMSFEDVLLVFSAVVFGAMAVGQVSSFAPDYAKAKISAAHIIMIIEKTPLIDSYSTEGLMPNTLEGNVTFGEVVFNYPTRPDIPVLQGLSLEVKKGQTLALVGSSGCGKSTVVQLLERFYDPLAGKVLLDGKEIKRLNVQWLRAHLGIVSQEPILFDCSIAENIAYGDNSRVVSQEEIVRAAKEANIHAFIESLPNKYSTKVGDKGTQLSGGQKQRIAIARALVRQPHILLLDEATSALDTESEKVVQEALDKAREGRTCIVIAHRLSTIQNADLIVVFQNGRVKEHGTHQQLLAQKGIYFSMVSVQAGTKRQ

As to `C=C(F)C(=O)N1CCN(c2nc(OC[C@@H]3CCCN3C)nc3c2CCN(c2cccc4cccc(Cl)c24)C3)C[C@@H]1CC#N` [MRTX849], the ATPase stimulation entry was “MRTX849- stimulated activity of ABCB1 ATPase was dose-dependent”.
